For orientation: inhibition means the relative decrease from the control value, in per cent. Usually Ki stands for a measure of affinity in units of concentration, obtained from inhibition or displacement.

In patent US8058475B2, “Substituted cyclohexylmethyl compounds” (Gruenenthal GmbH, priority 2005, dated 2011) one finds inhibition and Ki data, which are given here for 22 compounds.

The test deals with human μ-opiate receptor (Homo sapiens, UniProt P35372). Put plainly: Affinity for the human μ-opiate receptor ([3H]-naloxone displacement, SPA, CHO-K1 membrane preparation). Type of test: binding. Particulars: for inhibition at 1 µM: read-out: μ-Opioid receptor, % inhibition [1 μM]; for Ki: read-out: μ-Opioid receptor, Ki.
human μ-opiate receptor, sequence (P35372 whole entry): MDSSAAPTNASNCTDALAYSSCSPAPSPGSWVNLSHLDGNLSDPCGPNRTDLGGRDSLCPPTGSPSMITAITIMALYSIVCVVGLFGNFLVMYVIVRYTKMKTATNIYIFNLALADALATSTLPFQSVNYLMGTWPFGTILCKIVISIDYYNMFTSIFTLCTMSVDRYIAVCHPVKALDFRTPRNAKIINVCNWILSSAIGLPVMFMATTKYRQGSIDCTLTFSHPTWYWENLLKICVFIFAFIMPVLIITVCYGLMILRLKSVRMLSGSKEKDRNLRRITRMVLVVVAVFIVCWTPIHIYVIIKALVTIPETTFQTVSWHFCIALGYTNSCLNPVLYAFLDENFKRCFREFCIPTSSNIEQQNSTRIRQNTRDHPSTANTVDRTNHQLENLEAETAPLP

For the compound `CN(C)C(c1ccccc1)C1CCC(CCNC(=O)c2cccs2)CC1` (stereo not shown) [compound 452, thiophene-2-carboxylic acid {2-[4-(dimethylamino-phenyl-methyl)-cyclohexyl]-ethyl}-amide], the inhibition at 1 µM was found to be 99% and the Ki amounted to 12 nM.
As to `COc1cccc(CC(=O)NCCC2CCC(C(c3cccc(F)c3)N(C)C)CC2)c1` (stereo not shown) [compound 453, N-(2-{4-[dimethylamino-(3-fluoro-phenyl)-methyl]-cyclohexyl}-ethyl)-2-(3-methoxy-phenyl)-acetamide], the inhibition at 1 µM turned out to be 83% and the Ki was 43 nM.
The like results for `COc1cccc(CC(=O)NCCC2CCC(C(c3cccs3)N(C)C)CC2)c1` (stereo not shown) [compound 454, N-{2-[4-(dimethylamino-thiophen-2-yl-methyl)-cyclohexyl]-ethyl}-2-(3-methoxy-phenyl)-acetamide] were, in that order, 87% and 51 nM.
As for `CCC(C(=O)NCCC1CCC(C(c2ccc(Cl)cc2)N(C)C)CC1)c1ccccc1` (stereo not shown) [compound 455, N-(2-{4-[(4-chloro-phenyl)-dimethylamino-methyl]-cyclohexyl}-ethyl)-2-phenyl-butyramide], the inhibition at 1 µM was 81% and the Ki worked out at 69 nM.
Taken in the same sequence, the figures for `CCC(C(=O)NCCC1CCC(C(c2cccs2)N(C)C)CC1)c1ccccc1` (stereo not shown) [compound 456, N-{2-[4-(dimethylamino-thiophen-2-yl-methyl)-cyclohexyl]-ethyl}-2-phenyl-butyramide] were 96% and 23 nM.
For `CN(C)C(c1ccccc1)C1CCC(CCNC(=O)c2cc3ccccc3s2)CC1` (stereo not shown) [compound 457, benzo[b]thiophene-2-carboxylic acid {2-[4-(dimethylamino-phenyl-methyl)-cyclohexyl]-ethyl}-amide], the inhibition at 1 µM worked out at 91% and the Ki is 40 nM.
Taken in the same sequence, the figures for `CN(C)C(c1ccccc1)C1CCC(CCNC(=O)c2ccc([N+](=O)[O-])cc2)CC1` (stereo not shown) [compound 458, N-{2-[4-(dimethylamino-phenyl-methyl)-cyclohexyl]-ethyl}-4-nitro-benzamide] were 93% and 49 nM.
For `CN(C)C(c1ccc(F)cc1)C1CCC(CCNC(=O)c2cccc(Br)c2)CC1` (stereo not shown) [compound 459, 3-bromo-N-(2-{4-[dimethylamino-(4-fluoro-phenyl)-methyl]-cyclohexyl}-ethyl)-benzamide], the inhibition at 1 µM was 90% and the Ki is 31 nM.
Taken in the same sequence, the figures for `CN(C)C(c1ccccc1)C1CCC(CCNC(=O)c2c(F)c(F)c(F)c(F)c2F)CC1` (stereo not shown) [compound 460, N-{2-[4-(dimethylamino-phenyl-methyl)-cyclohexyl]-ethyl}-2,3,4,5,6-pentafluoro-benzamide] were 97% and 9.5 nM.
On to `CN(C)C(c1ccccc1)C1CCC(CCNC(=O)c2c(F)cccc2F)CC1` (stereo not shown) [compound 461, N-{2-[4-(dimethylamino-phenyl-methyl)-cyclohexyl]-ethyl}-2,6-difluoro-benzamide], for which the inhibition at 1 µM was found to be 100% and the inhibition constant Ki is 17 nM.
Taken in the same sequence, the figures for `CN(C)C(c1cccc(F)c1)C1CCC(CCNC(=O)c2c(F)cccc2F)CC1` (stereo not shown) [compound 462, N-(2-{4-[dimethylamino-(3-fluoro-phenyl)-methyl]-cyclohexyl}-ethyl)-2,6-difluoro-benzamide] were 91% and 55 nM.
Consider `CN(C)C(c1ccccc1)C1CCC(CCNC(=O)c2csc(-c3ccccc3)n2)CC1` (stereo not shown) [compound 463, 2-phenyl-thiazole-4-carboxylic acid {2-[4-(dimethylamino-phenyl-methyl)-cyclohexyl]-ethyl}-amide], for which the inhibition at 1 µM is 104% and the Ki came out at 8.6 nM.
Take `CN(C)C(c1ccc(F)cc1)C1CCC(CCNC(=O)c2csc(-c3ccccc3)n2)CC1` (stereo not shown) [compound 464, 2-phenyl-thiazole-4-carboxylic acid (2-{4-[dimethylamino-(4-fluoro-phenyl)-methyl]-cyclohexyl}-ethyl)-amide]: the inhibition at 1 µM was determined as 92% and the Ki was 75 nM.
Take `CN(C)C(c1cccs1)C1CCC(CCNC(=O)c2csc3ccccc23)CC1` (stereo not shown) [compound 465, benzo[b]thiophene-3-carboxylic acid {2-[4-(dimethylamino-thiophen-2-yl-methyl)-cyclohexyl]-ethyl}-amide]: the inhibition at 1 µM worked out at 99% and the Ki was found to be 3.1 nM.
Taken in the same sequence, the figures for `CSc1ncccc1C(=O)NCCC1CCC(C(c2ccccc2)N(C)C)CC1` (stereo not shown) [compound 466, N-{2-[4-(dimethylamino-phenyl-methyl)-cyclohexyl]-ethyl}-2-methylsulfanyl-nicotinamide] were 86% and 41 nM.
`Cc1oc(-c2ccccc2)cc1C(=O)NCCC1CCC(C(c2ccccc2)N(C)C)CC1` (stereo not shown) [compound 467, 2-methyl-5-phenyl-furan-3-carboxylic acid {2-[4-(dimethylamino-phenyl-methyl)-cyclohexyl]-ethyl}-amide]: the inhibition at 1 µM turned out to be 82% and the Ki was 62 nM.
For the compound `CN(C)C(c1ccccc1)C1CCC(CCNC(=O)c2csc(-c3ccc4c(c3)CCO4)n2)CC1` (stereo not shown) [compound 468, 2-(2,3-dihydro-benzofuran-5-yl)-thiazole-4-carboxylic acid {2-[4-(dimethylamino-phenyl-methyl)-cyclohexyl]-ethyl}-amide], the inhibition at 1 µM turned out to be 83% and the Ki came out at 160 nM.
For the compound `Cc1onc(-c2c(Cl)cccc2Cl)c1C(=O)NCCC1CCC(C(c2cccs2)N(C)C)CC1` (stereo not shown) [compound 469, 3-(2,6-dichloro-phenyl)-5-methyl-isoxazole-4-carboxylic acid {2-[4-(dimethylamino-thiophen-2-yl-methyl)-cyclohexyl]-ethyl}-amide], the inhibition at 1 µM was determined as 87% and the Ki came out at 57 nM.
Regarding `CN(C)C(c1ccccc1)C1CCC(CCNC(=O)c2ccc3snnc3c2)CC1` (stereo not shown) [compound 472, benzo[1,2,3]thiadiazole-5-carboxylic acid {2-[4-(dimethylamino-phenyl-methyl)-cyclohexyl]-ethyl}-amide], the inhibition at 1 µM was 85%.
As to `CN(C)C(c1ccccc1)C1CCC(CCNC(=O)c2cncc(Br)c2)CC1` (stereo not shown) [compound 473, 5-bromo-N-{2-[4-(dimethylamino-phenyl-methyl)-cyclohexyl]-ethyl}-nicotinamide], the inhibition at 1 µM stood at 91% and the inhibitory constant (Ki) is 18 nM.
With `COc1c(C(=O)NCCC2CCC(C(c3ccccc3)N(C)C)CC2)csc1Cl` (stereo not shown) [compound 474, 5-chloro-4-methoxy-thiophene-3-carboxylic acid {2-[4-(dimethylamino-phenyl-methyl)-cyclohexyl]-ethyl}-amide], the inhibition at 1 µM was 100% and the Ki turned out to be 2.7 nM.
In the case of `COc1c(C(=O)NCCC2CCC(C(c3ccc(F)cc3)N(C)C)CC2)csc1Cl` (stereo not shown) [compound 475, 5-chloro-4-methoxy-thiophene-3-carboxylic acid (2-{4-[dimethylamino-(4-fluoro-phenyl)-methyl]-cyclohexyl}-ethyl)-amide], the inhibition at 1 µM worked out at 97% and the Ki was 6.9 nM.
